Consider 13 compounds from patent publication US20050267133A1, “Pyrazolopyrimidines as kinase inhibitors” (priority 2002, published 2005).

Assay [1] addresses T1, GST-TIE2 (intracellular domains of human TIE2) (Homo sapiens, UniProt Q02763).
T1 construct: made in house
The assay is described as follows: TIE-2 Enzyme Assay (TIE2-E), LANCE method. To be noted: preactivated GST-TIE2, 1 μM D1-15 peptide, 80 uM ATP, 30 mins at room temperature; pIC50 = -log IC50 in Molar. The assay is classed as biochemical. An excerpt: The TIE-2 enzyme assay used the LANCE method (Wallac) and GST-TIE2, baculovirus expressed recombinant constructs of the intracellular domains of human TIE2 (amino acids 762-1104, GenBank Accession # L06139) tagged by GST). The method measured the ability of the purified enzymes to catalyse the transfer of the γ-phosphate from ATP onto tyrosine residues in a biotinylated synthetic peptide, D1-15 (biotin-C6-LEARLVAYEGWVAGKKKamide). This peptide phosphorylation was detected using the following procedure: for enzyme preactivation, GST-TIE2 was incubated for 30 mins at room temperature with 2 mM ATP, 5 mM MgCl2 and 12.5 mM DTT in 22.5 mM HEPES buffer (pH7.4). Preactivated GST-TIE2 was incubated for 30 mins at room temperature in 96 well plates with 1 μM D1-15 peptide, 80 uM ATP, 10 mM MgCl2, 0.1 mg/ml BSA and the test compound (diluted from a 10 mM stock in DMSO, final DMSO concentration was 2.4%) in 1 mM HEPES (pH7.4). The reaction was stopped by the addition of EDTA (final concentration 45 mM). Streptavidin linked-APC (allophycocyanin, Molecular Probe) and Europium-labeled anti-phosphorylated tyrosine antibody (Wallac) were then added at the final concentration of 17 μg/well and 2.1 μg/well, respectively. The APC signal was measured using an ARVO multilabel counter. (Wallac Berthold Japan). The percent inhibition of activity was calculated relative to blank control wells.
The concentration of test compound that inhibits 50% of activity (IC50) was interpolated using nonlinear regression (Levernberg-Marquardt) and the equation, y=Vmax (1−x/(K+x))+Y2, where “K” was equal to the IC50. The IC50 values were converted to pIC50 values, i.e., −log IC50 in Molar concentration.
Test compounds are employed in free or salt form.
(In general: Time-resolved FRET reads energy transfer from a long-lived donor to a nearby acceptor.)

In the next assay the target is GSK-3β (Homo sapiens, UniProt P49841). The assay is described as follows: GSK3 scintillation proximity assay (SPA) kinase assay. In kind it is biochemical. To be noted: 20 nM kinase, 2.5 uM ATP, biotinylated glycogen synthase peptide, 40 minutes at room temperature; -log IC50 in Molar; read-out: GSK-3 pIC50 (converted). The text has this: The phosphorylated biotinylated peptide is then captured onto streptavidin coated scintillation proximity assay (SPA) beads from Amersham Technology, where the signal from the ^33P is amplified via the scintillant contained in the beads.
GSK-3β is commercially available or may be cloned and expressed in E. coli using standard techniques to produce soluble, active protein. The production of active protein involves purification in two steps using Metal Chelate and Ion Exchange Chromatography. Protein eluting from Ion Exchange provides >90% pure product that may then be concentrated for use in high throughput screening.
The kinase was assayed at a concentration of 20 nM final in 100 mM HEPES, pH 7.2 containing 10 mM magnesium chloride, 0.1 mg/mL bovine serum albumin, 1 mM dithiothreitol, 0.3 mg/mL heparin, 2.8 uM peptide substrate, 2.5 uM ATP, and 0.2 uCi/well [[…]-^33P]-ATP. After 40 minutes incubation at room temperature, the reaction was stopped by addition of 100 mM EDTA and […] in 100 mM HEPES, pH7.2 followed by an additional solution of diluted Streptavidin coated SPA beads in PBS, pH 7.2 to give a final concentration of 0.25 mg of beads per assay well in a 96-well microtiter plate.
10 mM stock solutions of the compounds of the invention in 100% DMSO are generated as a first step in the screening process. The second step involves the creation of dose response plates where these compounds are diluted 10-fold in 100% DMSO to 1 mM concentrations and subsequently serially diluted 3-fold in 100% DMSO across the plate by automated liquid handling such that the final top concentration of inhibitor is 0.033 mM in the 30 uL kinase assay. The third step involves the creation of the assay plates. This is achieved by transferring 1 uL of the compounds to assay plates by automated liquid handling. The fourth step is to perform the assay as described and count the resulting plates in the Packard TopCount NXT microplate scintillation and luminescence counter.
The final step is data acquisition and analysis where IC50 values are generated for each compound by normalizing curve data to the equation 100*(U1−C2)/(C1−C2) (where U1 is the cpm value, C2 is the background, and C1 is the maximum number of counts), then fitting the normalized data to the equation y=Vmax*(1−(x/(K+x))). The IC50 values were converted to pIC50 values, i.e., −log IC50 in Molar concentration. The data is expressed below in Table 1.
(In general: SPA uses beads or plates that emit light when radiolabelled molecules are held near them.)

pIC50: −log10 of the molar value. A value given as a limit tells only on which side of the number the result lay.

GSK-3β, sequence (P49841 whole entry, species assumed): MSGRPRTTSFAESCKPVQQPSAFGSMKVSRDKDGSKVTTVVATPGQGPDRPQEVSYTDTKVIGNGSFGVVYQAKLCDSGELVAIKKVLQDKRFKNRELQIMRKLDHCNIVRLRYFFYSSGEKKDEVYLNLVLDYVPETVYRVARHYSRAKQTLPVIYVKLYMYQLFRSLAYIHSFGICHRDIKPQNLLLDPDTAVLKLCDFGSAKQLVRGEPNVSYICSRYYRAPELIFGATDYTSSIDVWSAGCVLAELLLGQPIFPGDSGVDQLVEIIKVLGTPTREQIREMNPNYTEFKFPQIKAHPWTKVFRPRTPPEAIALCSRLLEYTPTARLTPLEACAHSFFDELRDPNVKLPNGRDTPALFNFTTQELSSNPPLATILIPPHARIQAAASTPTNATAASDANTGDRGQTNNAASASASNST
T1 sequence (Q02763 762-1104): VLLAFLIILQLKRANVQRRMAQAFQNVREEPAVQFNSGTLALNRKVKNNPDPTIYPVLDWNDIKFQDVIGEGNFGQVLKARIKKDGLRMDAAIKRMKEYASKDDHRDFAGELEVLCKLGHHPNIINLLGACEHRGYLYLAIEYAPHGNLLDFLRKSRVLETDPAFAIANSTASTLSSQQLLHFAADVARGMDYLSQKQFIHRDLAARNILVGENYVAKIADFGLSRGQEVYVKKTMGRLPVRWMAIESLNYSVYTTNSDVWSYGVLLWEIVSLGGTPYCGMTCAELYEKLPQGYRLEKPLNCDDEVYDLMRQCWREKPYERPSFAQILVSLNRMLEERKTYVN

With `COc1ccc(/C=N/Nc2ncnc3c2cnn3-c2ccccc2)cc1O` [Example 45, 3-Hydroxy-4-methoxybenzaldehyde (1-phenyl-1H-pyrazolo[3,4-d]pyrimidin-4-yl)hydrazone], the pIC50 (commonly −log10 of the IC50, conventionally taken in molar units) in assay [1] is 6.00 to 7.00. In addition, the IC50 at GSK-3β was 0.1 to 1 µM.

Take `CCOc1cc(/C=N/Nc2ncnc3c2cnn3-c2ccccc2)cc(Br)c1O` [Example 46, 3-Bromo-4-hydroxy-3-ethoxybenzaldehyde (1-phenyl-1H-pyrazolo[3,4-d]pyrimidin-4-yl)hydrazone]: the pIC50 in assay [1] was 6.00 to 7.00. Further, on GSK-3β, the IC50 is 1 to 10 µM.

As for `COc1cc(/C=N/Nc2ncnc3c2cnn3-c2ccccc2)cc(C(=O)O)c1O` [Example 47, 3-Carboxy-4-Hydroxy-5-methoxybenzaldehyde (1-phenyl-1H-pyrazolo[3,4-d]pyrimidin-4-yl)hydrazone], in assay [1], the pIC50 was 5.00 to 6.00. On GSK-3β, the IC50 is 0.1 to 1 µM.

The compound `COc1cc(/C=N/Nc2ncnc3c2cnn3-c2ccccc2)cc(Br)c1O` [Example 48, 3-Bromo-4-hydroxy-3-methoxybenzaldehyde (1-phenyl-1H-pyrazolo[3,4-d]pyrimidin-4-yl)hydrazone] gave a pIC50 in assay [1] of 6.00 to 7.00. For the same compound, the IC50 at GSK-3β is 0.1 to 1 µM.

The compound `CCOc1cc(/C=N/Nc2ncnc3c2cnn3-c2ccccc2)ccc1O` [Example 49, 3-Ethoxy-4-hydroxy-benzaldehyde (1-phenyl-1H-pyrazolo[3,4-d]pyrimidin-4-yl)hydrazone] showed a pIC50 in assay [1] of 5.00 to 6.00. The IC50 at GSK-3β was 1 to 10 µM.

Turning to `Fc1ccc(/C=N/Nc2ncnc3c2cnn3-c2ccccc2)cc1` [Example 50, 4-Fluorobenzaldehyde (1-phenyl-1H-pyrazolo[3,4-d]pyrimidin-4-yl)hydrazone], the pIC50 in assay [1] is 5.00 to 6.00. Further, the IC50 on GSK-3β was 0.1 to 1 µM.

`OCc1ccc(/C=N/Nc2ncnc3c2cnn3-c2ccccc2)o1` [Example 51, 5-Hydroxymethyl-2-furaldehyde [1-(phenyl)-1H-pyrazolo[3,4-d]pyrimidin-4-yl]hydrazone]: the pIC50 in assay [1] was 5.00 to 6.00. The IC50 on GSK-3β is 1 to 10 µM.

`CC(=O)Nc1ccc(/C=N/Nc2ncnc3c2cnn3-c2ccccc2)cc1` [Example 52, 4-Acetamidobenzaldehyde [1-(phenyl)-1H-pyrazolo[3,4-d]pyrimidin-4-yl]hydrazone] gave a pIC50 in assay [1] of 6.00 to 7.00. Besides, the IC50 on GSK-3β was 0.1 to 1 µM.

Take `OCCOc1ccc(/C=N/Nc2ncnc3c2cnn3-c2ccccc2)cc1` [Example 53, 4-(2-Hydroxyethoxy)benzaldehyde [1-(phenyl)-1H-pyrazolo[3,4-d]pyrimidin-4-yl]hydrazone]: the negative logarithm of the IC50 (pIC50) in assay [1] was 5.00 to 6.00. Also, the IC50 at GSK-3β is 0.1 to 1 µM.

`COc1ccc(/C=N/Nc2ncnc3c2cnn3-c2ccccc2)cc1OC` [Example 56, 3,4-Dimethoxybenzaldehyde [1-(phenyl)-1H-pyrazolo[3,4-d]pyrimidin-4-yl]hydrazone] gave a pIC50 in assay [1] of 6.00 to 7.00. The IC50 on GSK-3β was 0.1 to 1 µM.

In assay [1], `[O-][n+]1ccc(/C=N/Nc2ncnc3c2cnn3-c2ccccc2)cc1` [Example 58, Pyridine-N-oxide-4-carboxaldehyde [1-(phenyl)-1H-pyrazolo[3,4-d]pyrimidin-4-yl]hydrazone] gave a pIC50 of 5.00 to 6.00. The IC50 at GSK-3β is below 0.1 µM.

With `CCN(CC)CCOc1ccc(/C=N/Nc2ncnc3c2cnn3-c2ccccc2)cc1` [Example 60, 4-(2-(Diethylamino)-ethoxy)-benzaldehyde [1-(phenyl)-1H-pyrazolo[3,4-d]pyrimidin-4-yl]hydrazone], the pIC50 in assay [1] is 6.00 to 7.00. In addition, the IC50 on GSK-3β was 0.1 to 1 µM.

As to `O=C(O)/C=C/c1ccc(/C=N/Nc2ncnc3c2cnn3-c2ccccc2)cc1` [Example 61, 4-Formylcin namic acid [1-(phenyl)-1H-pyrazolo[3,4-d]pyrimidin-4-yl]hydrazone], the negative-log IC50 (pIC50) in assay [1] is 6.00 to 7.00. Moreover, the IC50 at GSK-3β is 0.1 to 1 µM.
